Experimental data published in patent US20190231761A1, “COMPOSITIONS AND METHODS FOR TARGETING FRUCTOSE ENZYMES AND TRANSPORTERS FOR THE TREATMENT OF CANCER” (Duke University, priority 2018, published 2019).

Legend:
LV-HCT116 cells = test: intravenous injection of liver-derived HCT116 (LV-HCT116), tumors in the liver; type: in vivo, NOD/SCID mice; details: 5-Fluorouracil 100 mg/kg, Oxaliplatin 6 mg/kg, intraperitoneal twice a week; compared with ALDOB knockdown or fructose-restricted diet
Source text: FIG. 41A is representative IVIS luciferase in vivo images of mice with intravenous injection of liver-derived HCT116 cells with or without ALDOB knockdown. FIG. 41B are bright field and fluorescent (mCherry) images of livers of mice with intravenous injection of liver-derived HCT116 cells with or without ALDOB knockdown. FIG. 41C is a graph showing quantification of liver metastasis of mice with intravenous injection of liver-derived HCT116 cells with or without ALDOB knockdown, and show knockdown of ALDOB suppressed CRC liver lesions. FIG. 41D are representative IVIS luciferase in vivo images of mice with intravenous injection of liver-derived HCT116 with fructose diet. FIG. 41E are bright field and fluorescent (mCherry) images of livers of mice with intravenous injection of liver-derived HCT116 with fructose diet. FIG. 41F is a graph of quantification of liver metastasis of mice with intravenous injection of liver-derived HCT116 with fructose diet that show mice fed with fructose-restricted diet suppressed liver lesions. […] FIG. 41I is a graph showing quantification of liver lesions. […] Error bars denote SEM of 3 mice per group. **, p<0.01; ***, p<0.001. p-value was calculated based on one-way ANOVA. […]

CRC119 cells = test: cecum injection model, CRC liver metastasis, CRC119 cells with ALDOB knockdown; type: in vivo, NOD/SCID mice; details: cecum-injected CRC119 cells with ALDOB knockdown; control vectors 5 out of 5 mice
Description: (§1) Tumor-bearing mice were treated with 5-Fluorouracil (Sigma, St. Louis, Mo.) at a dose of 100 mg/kg, Oxaliplatin (Sigma, St. Louis, Mo.) at a dose of 6 mg/kg, 2-deoxyglucose (Sigma, St. Louis, Mo.) at a dose of 500 mg/kg or normal saline as vehicle control through intraperitoneal route twice a week. 2×10^6 cells carrying a luciferase/mCherry or luciferase/GFP vector were injected into the mice for cecum injection model and intrahepatic injection model. 5×10^5 cells were injected for intravenous injection. Luciferase signal was tracked in vivo using the IVIS luciferase imaging system 200 (Xenogen) for tumor development. Liver metastases were evaluated based on mCherry signals by an OV100 microscope (Olympus) after scarifying the mice.
(§2) To assess the contribution of ALDOB to fructose metabolism, ALDOB was knocked down in CRC cells using two shRNAs and validated the knockdown efficiencies by Western blot (FIG. 23). ALDOB lentiviral shRNA constructs were purchased from Sigma Mission shRNA dataset. The lentiviral vectors were co-transfected with helper plasmids into 293T cells. The lentiviral vectors were transfected into 293T cells. The viral supernatant was collected 48 hours after transfection and was used to infect CRC cells. […]

CRC57 cells = test: cecum injection model, CRC liver metastasis, CRC57 cells with ALDOB knockdown; type: in vivo, NOD/SCID mice; details: cecum-injected CRC57 cells with ALDOB knockdown; control vectors 5 out of 5 mice
Description: as §1, §2

HCT116 cells = test: cecum injection model, CRC liver metastasis, HCT116 cells with ALDOB knockdown; type: in vivo, NOD/SCID mice; details: cecum-injected HCT116 cells with ALDOB knockdown; control vectors 5 out of 5 mice
Description: as §1, §2

CRC cells = test: KHK knockdown in CRC cells transplanted into mouse cecum, liver metastasis; type: in vivo; details: IVIS luciferase images, quantification of liver metastasis
Description: FIG. 42A-42B illustrates KHK knockdown suppresses liver metastasis. FIG. 42A is a Western blot showing KHK knockdown efficiency. FIG. 42B are representative IVIS luciferase in vivo images, bright field and fluorescent images of livers, and quantification of liver metastasis. Error bars denote SEM of 5 mice per group. p-values were calculated based on one-way ANOVA. ***, p<0.001.
To determine if silencing ketohexokinase (KHK) can suppress liver metastases, KHK was knocked down using shRNA nucleic acid sequence SEQ ID NO:4 (FIG. 42A) in CRC cells and the cells were transplanted into the mouse cecum using the methods described in Example 6 with respect to ALDOB knockdown.

Row | Compound | benefit in terms of tumor suppression or survival (LV-HCT116 cells) | mice that developed detectable liver metastases (CRC119 cells) | mice that developed detectable liver metastases (CRC57 cells) | mice that developed detectable liver metastases (HCT116 cells) | metastatic CRC growth in the liver (CRC cells)
1 | O=c1[nH]cc(F)c(=O)[nH]1 [5-Fluorouracil] | less benefit |  |  |  | 
2 | shRNA1: shRNA against human ALDOB, Sigma Mission lentiviral construct (CCGGCTCAGAAATTGCCCAGAGCATCTCGAGATGCTCTGGGCAATTTCTGAGTTTTTG) |  | 2 out of 5 mice | 2 out of 5 mice | 2 out of 5 mice | 
3 | SEQ ID NO:4: shRNA against human fructokinase (KHK) (CCGGCCTAAGGAGGACTCGGAGATACTCGAGTATCTCCGAGTCCTCCTTAGGTTTTTG) |  |  |  |  | significantly suppressed
4 | O=C1[O][Pt]2([NH][C@@H]3CCCC[C@H]3[NH]2)[O]C1=O [Oxaliplatin] | less benefit |  |  |  | 
5 | shRNA2: shRNA against human ALDOB, Sigma Mission lentiviral construct (CCGGGTGGGAATCAAGTTAGACCAACTCGAGTTGGTCTAACTTGATTCCCACTTTTTG) |  | 1 out of 5 mice | 2 out of 5 mice | 2 out of 5 mice | 
